From patent US20060167057A1, “Compounds for the treatment of CNS and amyloid associated diseases” (priority 2004, published 2006)

Experiments:
HUVEC = test: Cellular toxicity assay on HUVEC (WST-1 viability); format: cell-based, human; conditions: 24 hours, <75% considered toxic
Experimental: Compound samples in PBS (without Ca^+2, Mg^+2)-glucose 3 mM-HEPES 10 mM—DMSO 1%, as prepared in Example 1, were thawed and left for at least 30 minutes at 20-23° C. before preparation of the following sub-dilutions for the compound toxicity assay: • 100 μL of stock compound solution were added to 900 μL PBSD-1 [diluted 1:10 for a final 1:10 dilution] • 100 μL (1/10 dilution above) were added to 900 μL PBSD-1 [diluted 1:10 for a final 1:100 dilution] Culture of HUVEC
Endothelial cells from human umbilical cord (HUV-EC-C or HUVEC) were purchased form American Type Culture Collection (ATCC, CRL-1730) and cultured according to the manufacturer's protocol. A 1-mL frozen aliquot of sub-cultured cells was thawed in a 37° C. water bath and centrifuged following addition of 5 mL of medium. After re-suspension in 5 mL medium, cells were seeded in a TC80 cm^2 flask pre-coated with 0.1% gelatin. Culture medium was replaced every 3-4 days and cells monitored until confluency was reached.
A sterile stock solution of 0.5 mM of camptothecin (Sigma) was prepared by dissolving a weighed amount of 0.0085 g in 50 mL of double distilled water at 37° C. in a water bath. The solution was vortexed, then filtered through a 0.22-μm filter unit and kept at 4° C. for the duration of the toxicity assays.
From the stock solution, concentrations of 60, 75, 80, 100, 150, 200 and 250 nM of camptothecin were prepared in culture diluent containing 1% DMSO.
HUVEC were cultured for 4 days in gelatin-coated 96-well plates, following seeding with 40 μL/well of a cellular suspension of 1×10^5 cells/mL. Culture media was replaced every 3-4 days of culture until confluency was reached.
On the day of the toxicity assay, the conditioned culture media was removed from the wells and 90 μL of culture medium containing 1% DMSO was distributed in the plate. A volume of 10 μL of the stock solution, 1:10 and 1:100 dilutions of the compounds in PBS-glucose-HEPES-DMSO 1% were added to the appropriate wells (100-μL total volume/well). A volume of 100 μL of camptothecin dilutions and culture medium containing 1% DMSO was also distributed into the plate. Cells were incubated at 37° C. of 24 hours and then 10 μL of the tetrazolium salt WST-1 solution were added to cells and incubated for an extra 90 minutes at 37° C. The absorbance that was associated to the cellular viability was measured at 450nm on the SpectraFluor Tecan reader, and the raw data processed.
The intrinsic cellular toxicity of the compounds was determined for each concentration of every compound on HUVEC. The viability percentage was assessed (OD sample/OD control) ×100% and any value <75% viability was considered toxic. The following table, Table 5, lists the few compounds that presented at least one toxic concentration.

Aβ40 = Aβ40 (Homo sapiens, UniProt P05067); test: Electrospray MS assay for binding to Aβ40; set-up: key: +++ = Strong (70 and higher % of free peptide); ++ = Moderate (50-70% of free peptide); + = Weak (25-50% of free peptide); 0 = None; conditions: 100 μM compound, 20 μM Aβ40, pH 7.4
Excerpt: (§1) The ability of a therapeutic compound of the invention to inhibit an interaction between an amyloidogenic protein and a glycoprotein or proteoglycan constituent of a basement membrane can be assessed by an in vitro binding assay, such as that described in U.S. Pat. No. 5,164,295, the contents of which are hereby incorporated by reference. Alternatively, the ability of a compound to bind to an amyloidogenic protein or to inhibit the binding of a basement membrane constituent (e.g. HSPG) to an amyloidogenic protein (e.g. Aβ) can be measured using a mass spectrometry assay where soluble protein, e.g Aβ, IAPP, β2M is incubated with the compound. A compound which binds to, e.g Aβ, will induce a change in the mass spectrum of the protein. Exemplary protocols for a mass spectrometry assay employing Aβ and IAPP can be found in the Examples, the results of which are provided in Table 5. The protocol can readily be modified to adjust the sensitivity of the data, e.g., by adjusting the amount of protein and/or compound employed. Thus, e.g., binding might be detected for test compounds noted as not having detectable binding employing less sensitive test protocols.
The binding ability between the compounds synthesized in Example 4 and Aβ40 in an aqueous solution is tested. The binding ability is attributed semi-quantitatively from the intensities of peptide-compound complex peaks observed in the Electrospray Mass Spectrum.
In the MS assay for Aβ40, samples are prepared as aqueous solutions adding 20% ethanol if necessary to solubilize in water. The stock solution of the peptide contains 50 μm Aβ40. In a typical experiment, 100 μM of an exemplary compound as prepared in Example 4 and 20 μM of solubilized Aβ40 are used. The ratio of the compound: peptide is 5:1. The pH value of each sample is adjusted to 7.4 (±0.2) by addition of 0.1% aqueous sodium hydroxide. The solutions are then analyzed by electrospray ionization mass spectrometry using a Waters ZQ 4000 mass spectrometer. Samples are introduced by direct infusion at a flow-rate of 25 μL/min within 2 hr. after sample preparation. The source temperature is kept at 70° C. and the cone voltage is 20 V for all the analysis. Data are processed using Masslynx 3.5 software. Aβ 1-40 (M.W.=4329) alone at 20 μM is analyzed at pH 7.32 as a control. Sodium clusters, which are typical of this system at +3 and +4 at m/z […] regions, may be observed. The MS assay gives data on the ability of compounds to bind to soluble Aβ, whereas the ThT, EM and CD assays give data on inhibition of fibrillogenesis.
In Table 7, a blank box means that a value was not determined for that compound in that assay.

IAPP = molecular target: T1, IAPP (Homo sapiens, UniProt P10997); test: Electrospray MS assay for binding to IAPP; set-up: key to MS Results (IAPP binding), Water: 0 = None; conditions: 100 μM compound, 20 μM IAPP; for MS Results (IAPP binding), Water: pH 7.4, aqueous solution; for MS Results (IAPP binding), 20% Ethanol: pH 7.4, 20% ethanol in water
T1 construct: which is a 37 amino acid peptide, derived from a larger precursor peptide, called pro-IAPP
T1 sequence (P10997 34-70 limits assumed): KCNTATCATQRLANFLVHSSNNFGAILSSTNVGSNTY
Excerpt: as §1
The binding ability between the compounds synthesized in Example 4 and IAPP in an aqueous solution is tested. The binding ability is attributed semi-quantitatively from the intensities of peptide-compound complex peaks observed in the Electrospray Mass Spectrum.
In the MS assay for IAPP, samples are prepared as both aqueous solutions and as 20% ethanol in water solutions, including 100 μM of an exemplary compound as prepared in. Example 4 and 20 μM of solubilized IAPP. The stock solution contains 30 μM IAPP and the initial pH is 3.8. Generally, IAPP precipitates out of solution at concentrations higher than 50 μM and pH higher than ˜6 as soon as a test compound is mixed with the peptide. The pH value of each sample, therefore, is adjusted to 7.4 ([…]) by addition of 0.1% aqueous sodium hydroxide. The solutions aer then analyzed by electrospray ionization mass spectrometry using a Waters ZQ 4000 mass spectrometer. Samples are introduced by direct infusion at a flow-rate of 25 μL/min within 2 hr. after sample preparation. The source temperature is kept at 70° C. and the cone voltage is 20 V for all the analysis. Data are processed using Masslynx 3.5 software. IAPP (MW 3903.4) alone at 20 μM is analyzed at pH 7.32 as a control. Sodium clusters, which are typical of this system at +3 and +4 at m/z 1301.9 and 976.7 regions, may be observed. In Table 8, a blank box means that a value was not determined for that compound in that assay.

Sequence of Aβ40 (P05067 672-711 limits assumed): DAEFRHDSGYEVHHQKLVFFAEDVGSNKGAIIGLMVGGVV

Compound	MS Results (Aβ 1-40 binding) (Aβ40)	also measured
O=C(NC(Cc1cccc(CSc2ncnc3[nH]ncc23)n1)C(=O)O)NC(c1ccccc1)c1ccccc1 (stereo not shown) [Compound 65]		Viability (%) (HUVEC; 10^−4 M): 107%; Viability (%) (HUVEC; 10^−5 M): 68%; Viability (%) (HUVEC; 10^−6 M): 109%
COc1ccc(-n2nnnc2SCc2cccc(C[C@H](N)C(=O)O)c2)cc1 [drawing 487]	+ (+ = Weak (25-50% of free peptide))	
N[C@@H](Cc1cccc(CSc2nnnn2-c2ccccc2)c1)C(=O)O [drawing 488]	+ (+ = Weak (25-50% of free peptide))	
N[C@@H](Cc1cccc(CSc2nc3ccccc3[nH]2)c1)C(=O)O [drawing 489]	+ (+ = Weak (25-50% of free peptide))	
N[C@@H](Cc1cccc(CSc2nnc(-c3ccccc3)[nH]2)c1)C(=O)O [drawing 490]	+ (+ = Weak (25-50% of free peptide))	
N[C@@H](Cc1cccc(CSc2nc3ccccc3[nH]2)n1)C(=O)O [drawing 491]	+ (+ = Weak (25-50% of free peptide))	
N[C@@H](Cc1cccc(CSc2ncnc3[nH]ncc23)n1)C(=O)O [drawing 492]	+ (+ = Weak (25-50% of free peptide))	
N[C@@H](Cc1cccc(CS(=O)(=O)c2nc3ccccc3[nH]2)n1)C(=O)O [drawing 493]	+ (+ = Weak (25-50% of free peptide))	
COc1ccc(-n2nnnc2[S+]([O-])Cc2cccc(C[C@H](N)C(=O)O)c2)cc1 (stereo partly shown) [drawing 494]	0	
N[C@@H](Cc1cccc(CSc2nccc(O)n2)c1)C(=O)O [drawing 495]	0	
N[C@@H](Cc1cccc(C[S+]([O-])c2nnnn2-c2ccccc2)c1)C(=O)O (stereo partly shown) [drawing 496]	+ (+ = Weak (25-50% of free peptide))	
N[C@@H](Cc1cccc(CSc2nccc(C(F)(F)F)n2)n1)C(=O)O [drawing 497]	Compound insoluble	
N[C@@H](Cc1cccc(CSc2nc3ccc(Cl)cc3s2)n1)C(=O)O [drawing 498]	Compound Insoluble	
N[C@@H](Cc1cccc(CS(=O)(=O)c2nc3ccccc3[nH]2)c1)C(=O)O [drawing 499]	++ (++ = Moderate (50-70% of free peptide))	
N[C@@H](Cc1cccc(C[S+]([O-])c2nnnn2-c2ccccc2)n1)C(=O)O (stereo partly shown) [drawing 500]	0	
N[C@@H](Cc1cccc(CSc2nnnn2-c2ccc(O)cc2)c1)C(=O)O [drawing 501]	+ (+ = Weak (25-50% of free peptide))	
N[C@@H](Cc1cccc(CSc2nnc(-c3ccncc3)o2)c1)C(=O)O [drawing 502]	+ (+ = Weak (25-50% of free peptide))	
COc1ccc(-n2nnnc2[S+]([O-])Cc2cccc(C[C@H](N)C(=O)O)c2)cc1 (stereo partly shown) [drawing 503]	+ (+ = Weak (25-50% of free peptide))	
N[C@@H](Cc1cccc(C[S+]([O-])c2nnc(-c3ccccc3)[nH]2)c1)C(=O)O (stereo partly shown) [drawing 504]	0	
N[C@@H](Cc1cccc(CS(=O)(=O)c2ncc[nH]2)c1)C(=O)O [drawing 505]	+ (+ = Weak (25-50% of free peptide))	
N[C@@H](Cc1cccc(CS(=O)(=O)c2nc3ccccc3[nH]2)c1)C(=O)O [drawing 521]		MS Results (IAPP binding), Water (IAPP): + (+ = Weak (15-30% of free peptide))
N[C@@H](Cc1cccc(C[S+]([O-])c2nnnn2-c2ccccc2)n1)C(=O)O (stereo partly shown) [drawing 522]		MS Results (IAPP binding), 20% Ethanol (IAPP): ++ (++ = Moderate (30-50% of free peptide)); MS Results (IAPP binding), Water (IAPP): 0
N[C@@H](Cc1cccc(CSc2nnnn2-c2ccc(O)cc2)c1)C(=O)O [drawing 523]		MS Results (IAPP binding), 20% Ethanol (IAPP): +++ (+++ = Strong (50 and higher % of free peptide)); MS Results (IAPP binding), Water (IAPP): ++ (++ = Moderate (30-50% of free peptide))
N[C@@H](Cc1cccc(CSc2nnc(-c3ccncc3)o2)c1)C(=O)O [drawing 524]		MS Results (IAPP binding), 20% Ethanol (IAPP): + (+ = Weak (15-30% of free peptide)); MS Results (IAPP binding), Water (IAPP): ++ (++ = Moderate (30-50% of free peptide))
CN(C)CCn1nnnc1SCc1cccc(C[C@H](N)C(=O)O)c1 [drawing 525]		MS Results (IAPP binding), 20% Ethanol (IAPP): + (+ = Weak (15-30% of free peptide)); MS Results (IAPP binding), Water (IAPP): + (+ = Weak (15-30% of free peptide))
N[C@@H](Cc1cccc(C[S+]([O-])c2nnc(-c3ccccc3)[nH]2)c1)C(=O)O (stereo partly shown) [drawing 526]		MS Results (IAPP binding), Water (IAPP): 0
N[C@@H](Cc1cccc(CS(=O)(=O)c2ncc[nH]2)c1)C(=O)O [drawing 527]		MS Results (IAPP binding), Water (IAPP): 0
N[C@@H](Cc1cccc(CSc2nnc(-c3ccncc3)[nH]2)c1)C(=O)O [drawing 528]		MS Results (IAPP binding), Water (IAPP): + (+ = Weak (15-30% of free peptide))
